Laboratory results published in US20060198925A1, “Food preservative” (priority 2003, published 2006).

What was measured:
yeast = assay: Final proofing time of dough containing the additive; type: cell-based; conditions: 6.5 grams additive in dough; final proofing at 40° C. and relative humidity of 80%; time of rising to a specific maximum volume
Description: Then a dough comprising the following ingredients was prepared: [table] Then a further additive was mixed with the above-mentioned dough: The four above-mentioned doughs were mixed for half a minute at slow speed in a McDuffy mixer and then for 8.5 minutes at high speed in the same mixer. The dough temperature was 26° C. The resting time was 2 minutes (at room temperature). After said resting time 420 grams of each dough was taken, and the doughs (each of 420 grams) were then rounded up softly by hand. The initial proofing time was 6 minutes (at room temperature), after which the doughs were moulded into a certain baking form. The final proofing time (at 40° C. and a relative humidity of 80%) was determined, which appeared to be dependent on the type of further additive as contained in the four above-mentioned doughs. With “final proofing time” it is herein meant the time period of rising the dough, before baking, to a certain extent being a specific maximum volume. After this final proofing the doughs were baked for 20 minutes in an oven at 210° C. (top oven temperature) and at 230° C. (bottom oven temperature). The four bread products as obtained were then stored at room temperature (and at a relative humidity of 80%). During 1 month it was determined by means of visual observation whether or not moulds were formed on the four bread products.

moulds = assay: Mould formation on stored bread product (visual observation); type: cell-based; conditions: bread stored at room temperature, relative humidity of 80%, visual observation during 1 month
Description: The four above-mentioned doughs were mixed for half a minute at slow speed in a McDuffy mixer and then for 8.5 minutes at high speed in the same mixer. The dough temperature was 26° C. The resting time was 2 minutes (at room temperature). After said resting time 420 grams of each dough was taken, and the doughs (each of 420 grams) were then rounded up softly by hand. The initial proofing time was 6 minutes (at room temperature), after which the doughs were moulded into a certain baking form. The final proofing time (at 40° C. and a relative humidity of 80%) was determined, which appeared to be dependent on the type of further additive as contained in the four above-mentioned doughs. With “final proofing time” it is herein meant the time period of rising the dough, before baking, to a certain extent being a specific maximum volume. After this final proofing the doughs were baked for 20 minutes in an oven at 210° C. (top oven temperature) and at 230° C. (bottom oven temperature). The four bread products as obtained were then stored at room temperature (and at a relative humidity of 80%). During 1 month it was determined by means of visual observation whether or not moulds were formed on the four bread products.

## CCC(=O)[O-].CCC(=O)[O-].[Ca+2] [Comparative, calcium propionate]
yeast
  Final proofing time of dough: 90 min
moulds
  Mould formation on bread product: no
